The structures appear in SMILES notation. pIC50: −log10 of the molar value.

The source of these data is patent publication US11142515B2, “Pyrazolyl-ureas as kinase inhibitors” (RESPIVERT LIMITED, priority 2014, dated 2021).

The target of one test is T1, p38 MAPKα isoform (MAPK14) (Homo sapiens, UniProt Q16539).
T1 construct: purchased Life Technologies
T1 sequence (Q16539 whole entry, canonical isoform): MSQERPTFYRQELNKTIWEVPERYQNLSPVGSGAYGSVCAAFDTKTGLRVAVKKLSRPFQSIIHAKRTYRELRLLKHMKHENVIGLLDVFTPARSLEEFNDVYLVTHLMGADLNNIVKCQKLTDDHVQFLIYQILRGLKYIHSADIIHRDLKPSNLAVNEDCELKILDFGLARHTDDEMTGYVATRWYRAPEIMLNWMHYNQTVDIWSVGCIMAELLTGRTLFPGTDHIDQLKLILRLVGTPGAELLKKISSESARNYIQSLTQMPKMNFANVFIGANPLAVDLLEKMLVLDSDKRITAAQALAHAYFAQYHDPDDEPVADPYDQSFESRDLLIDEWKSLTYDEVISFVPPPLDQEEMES
Briefly: p38 MAPKα enzyme inhibition (Z-LYTE FRET). The following applies: Table 2B, unit inferred; read-out: p38 MAPKα (Enzyme Profile). Type of test: biochemical. The procedure: (§1) The enzyme inhibitory activities of compounds disclosed herein were determined by FRET using synthetic peptides labelled with both donor and acceptor fluorophores (Z-LYTE, Life Technologies, Paisley, UK).
The inhibitory activities of compounds of the invention against the p38 MAPKα isoform (MAPK14: Life Technologies), were evaluated indirectly by determining the level of activation/phosphorylation of the target peptide of the p38 MAPKα down-stream molecule, MAPKAP-K2. The enzyme (40 ng/mL, 2.5 μL) was incubated with the test compound (2.5 μL of either 40 μg/mL, 12 μg/mL, 4 μg/mL, 1.2 μg/mL, 0.4 μg/mL, 0.12 μg/mL, 0.04 μg/mL, 0.012 μg/mL, 0.004 μg/mL or 0.0012 μg/mL) for 2 h at RT. […] Development reagent (protease, 5 μL) was added for 1 h prior to detection in a fluorescence microplate reader (EnVision, Perkin Elmer, Waltham, Mass., USA).
(§2) In all cases, the site-specific protease cleaves non-phosphorylated peptide only and eliminates the FRET signal. Phosphorylation levels of each reaction were calculated using the ratio of coumarin emission (donor) over fluorescein emission (acceptor), for which low ratios indicate high phosphorylation and high ratios indicate low phosphorylation levels.
Consider `CN(C)Cc1cccc(-n2nc(C(C)(C)C)cc2NC(=O)Nc2ccc(OCc3ccnc(Nc4cnccn4)c3)c3ccccc23)c1` [Example 261, 1-(3-(tert-butyl)-1-(3-((dimethylamino)methyl)phenyl)-1H-pyrazol-5-yl)-3-(4-((2-(pyrazin-2-ylamino)pyridin-4-yl)methoxy)naphthalen-1-yl)urea], for which the pIC50 is greater than 9.33.

`CCc1cncc(Nc2cc(COc3ccc(NC(=O)Nc4cc(C(C)(C)C)nn4-c4cc(F)cc(OC)c4)c4ccccc34)ccn2)n1` [Example 211, 1-(3-(tert-butyl)-1-(3-fluoro-5-methoxyphenyl)-1H-pyrazol-5-yl)-3-(4-((2-((6-ethylpyrazin-2-yl)amino)pyridin-4-yl)methoxy)naphthalen-1-yl)urea]: the pIC50 is 7.22.

As to `COc1cnc(Nc2cc(COc3ccc(NC(=O)Nc4cc(C(C)(C)C)nn4-c4ccc(C)cc4)c4ccccc34)ccn2)cn1` [Example 105, 1-(3-(tert-butyl)-1-(p-tolyl)-1H-pyrazol-5-yl)-3-(4-((2-((5-methoxypyrazin-2-yl)amino)pyridin-4-yl)methoxy)naphthalen-1-yl) urea], the pIC50 was greater than 8.80.

For another test, the target named is T2, p38MAPKγ (MAPK12) (Homo sapiens, UniProt P53778).
T2 construct: purchased Life Technologies
T2 sequence (P53778 1-367): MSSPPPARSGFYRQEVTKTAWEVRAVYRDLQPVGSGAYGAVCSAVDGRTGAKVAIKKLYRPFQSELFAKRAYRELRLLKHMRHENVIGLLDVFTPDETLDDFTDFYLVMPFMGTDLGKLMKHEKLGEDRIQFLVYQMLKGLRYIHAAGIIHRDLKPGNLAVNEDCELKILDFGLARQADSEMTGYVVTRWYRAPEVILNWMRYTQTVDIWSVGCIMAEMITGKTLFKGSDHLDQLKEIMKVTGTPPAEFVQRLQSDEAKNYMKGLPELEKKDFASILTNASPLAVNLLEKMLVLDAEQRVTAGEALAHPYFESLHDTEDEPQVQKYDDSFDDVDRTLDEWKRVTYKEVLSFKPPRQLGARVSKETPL
Kind of test: p38 MAPKγ enzyme inhibition (Z-LYTE FRET). In kind it is biochemical. Conditions: Table 2B, unit inferred; read-out: p38 MAPKγ (Enzyme Profile). The procedure:
as §1
The inhibitory activities of compounds of the invention against p38MAPKγ (MAPK12: Life Technologies), were evaluated by determining the level of activation/phosphorylation of the target peptide. The enzyme (800 ng/mL, 2.5 μL) was incubated with the test compound (2.5 μL at either 40 μg/mL, 12 μg/mL, 4 μg/mL, 1.2 μg/mL, 0.4 μg/mL, 0.12 μg/mL, 0.04 μg/mL, 0.012 μg/mL, 0.004 μg/mL or 0.0012 μg/mL) for 2 h at RT. The FRET peptides (8 μM, 2.5 μL), and appropriate ATP solution (2.5 μL, 400 μM) were then added to the enzymes/compound mixtures and incubated for 1 h at RT. Development reagent (protease, 5 μL) was added for 1 h prior to detection in a fluorescence microplate reader (EnVision, Perkin Elmer).
as §2
For the molecule `CN(C)Cc1cccc(-n2nc(C(C)(C)C)cc2NC(=O)Nc2ccc(OCc3ccnc(Nc4cnccn4)c3)c3ccccc23)c1` [Example 261, 1-(3-(tert-butyl)-1-(3-((dimethylamino)methyl)phenyl)-1H-pyrazol-5-yl)-3-(4-((2-(pyrazin-2-ylamino)pyridin-4-yl)methoxy)naphthalen-1-yl)urea], the pIC50 is 6.84.

Consider `CCc1cncc(Nc2cc(COc3ccc(NC(=O)Nc4cc(C(C)(C)C)nn4-c4cc(F)cc(OC)c4)c4ccccc34)ccn2)n1` [Example 211, 1-(3-(tert-butyl)-1-(3-fluoro-5-methoxyphenyl)-1H-pyrazol-5-yl)-3-(4-((2-((6-ethylpyrazin-2-yl)amino)pyridin-4-yl)methoxy)naphthalen-1-yl)urea], for which the pIC50 was 6.24.

Turning to `COc1cnc(Nc2cc(COc3ccc(NC(=O)Nc4cc(C(C)(C)C)nn4-c4ccc(C)cc4)c4ccccc34)ccn2)cn1` [Example 105, 1-(3-(tert-butyl)-1-(p-tolyl)-1H-pyrazol-5-yl)-3-(4-((2-((5-methoxypyrazin-2-yl)amino)pyridin-4-yl)methoxy)naphthalen-1-yl) urea], the pIC50 is 5.34.

`Cc1ccc(-n2nc(C(C)(C)C)cc2NC(=O)Nc2ccc(OCc3ccnc(Nc4cnc(C(=O)NC5CCN(CCO)CC5)cn4)c3)c3ccccc23)cc1` [Example 103]: the pIC50 was 7.14.

For `Cc1ccc(-n2nc(C(C)(C)C)cc2NC(=O)Nc2ccc(OCc3ccnc(Nc4cnc(C(=O)N[C@@H]5CCN(C)C5)cn4)c3)c3ccccc23)cc1` [Example 82], the pIC50 is 7.34.

Turning to `Cc1ccc(-n2nc(C(C)(C)C)cc2NC(=O)Nc2ccc(OCc3ccnc(Nc4cnc(C(=O)N[C@H]5COC[C@@H]5N5CCOCC5)cn4)c3)c3ccccc23)cc1` [Example 93], the pIC50 was 6.99.

Consider `Cc1ccc(-n2nc(C(C)(C)C)cc2NC(=O)Nc2ccc(OCc3ccnc(Nc4cnc(C(=O)N[C@H]5CCCN(C)C5)cn4)c3)c3ccccc23)cc1` [Example 88], for which the pIC50 is 6.63.

On to `Cc1ccc(-n2nc(C(C)(C)C)cc2NC(=O)Nc2ccc(OCc3ccnc(Nc4cnc(C(=O)NCCN5CC[C@@H](F)C5)cn4)c3)c3ccccc23)cc1` [Example 100], for which the pIC50 was 6.69.

For the molecule `CO[C@@H]1CCN(CCNC(=O)c2cnc(Nc3cc(COc4ccc(NC(=O)Nc5cc(C(C)(C)C)nn5-c5ccc(C)cc5)c5ccccc45)ccn3)cn2)C1` [Example 98], the pIC50 is 6.94.

As to `Cc1ccc(-n2nc(C(C)(C)C)cc2NC(=O)Nc2ccc(OCc3ccnc(Nc4cnc(C(=O)NCCN5C[C@@H](C)O[C@@H](C)C5)cn4)c3)c3ccccc23)cc1` [Example 85], the pIC50 was 6.78.

In the case of `Cc1ccc(-n2nc(C(C)(C)C)cc2NC(=O)Nc2ccc(OCc3ccnc(Nc4cnc(CN5CCN(C)CC5)cn4)c3)c3ccccc23)cc1` [Example 277, 1-(3-(tert-butyl)-1-(p-tolyl)-1H-pyrazol-5-yl)-3-(4-((2-((5-((4-methylpiperazin-1-yl)methyl)pyrazin-2-yl)amino)pyridin-4-yl)methoxy)naphthalen-1-yl)urea], the pIC50 was 7.51.

Consider `Cc1ccc(-n2nc(C(C)(C)C)cc2NC(=O)Nc2ccc(OCc3ccnc(Nc4cnc(C(=O)N[C@@H](C)CN5CCOCC5)cn4)c3)c3ccccc23)cc1` [Example 278, (S)-5-((4-(((4-(3-(3-(tert-butyl)-1-(p-tolyl)-1H-pyrazol-5-yl)ureido)naphthalen-1-yl)oxy)methyl)pyridin-2-yl)amino)-N-(1-morpholinopropan-2-yl) pyrazine-2-carboxamide], for which the pIC50 was 6.71.

As for `CO[C@H]1CCCN(CCNC(=O)c2cnc(Nc3cc(COc4ccc(NC(=O)Nc5cc(C(C)(C)C)nn5-c5ccc(C)cc5)c5ccccc45)ccn3)cn2)C1` [Example 54, (S)-5-((4-(((4-(3-(3-(tert-butyl)-1-(p-tolyl)-1H-pyrazol-5-yl)ureido)naphthalen-1-yl)oxy)methyl)pyridin-2-yl)amino)-N-(2-(3-methoxypiperidin-1-yl)ethyl)pyrazine-2-carboxamide], the pIC50 is 6.82.

For the molecule `Cc1ccc(-n2nc(C(C)(C)C)cc2NC(=O)Nc2ccc(OCc3ccnc(Nc4cnc(C(=O)NCCCN5CCN(C)CC5)cn4)c3)c3ccccc23)cc1` [Example 280, 5-((4-(((4-(3-(3-(tert-butyl)-1-(p-tolyl)-1H-pyrazol-5-yl)ureido)naphthalen-1-yl)oxy)methyl)pyridin-2-yl)amino)-N-(3-(4-methyl-piperazin-1-yl)propyl) pyrazine-2-carboxamide], the pIC50 is 7.51.

With `COCCN1CCC(NC(=O)c2cnc(Nc3cc(COc4ccc(NC(=O)Nc5cc(C(C)(C)C)nn5-c5ccc(C)cc5)c5ccccc45)ccn3)cn2)CC1` [Example 282, 5-((4-(((4-(3-(3-(tert-butyl)-1-(p-tolyl)-1H-pyrazol-5-yl)ureido)naphthalen-1-yl)oxy)methyl)pyridin-2-yl)amino)-N-(1-(2-methoxy-ethyl)piperidin-4-yl) pyrazine-2-carboxamide], the pIC50 was 7.21.

As to `CC(=O)N1CCN(CCNC(=O)c2cnc(Nc3cc(COc4ccc(NC(=O)Nc5cc(C(C)(C)C)nn5-c5ccc(C)cc5)c5ccccc45)ccn3)cn2)CC1` [Example 102], the pIC50 was 7.34.

As for `CCCc1cncc(Nc2cc(COc3ccc(NC(=O)Nc4cc(C(C)(C)C)nn4-c4cccc(F)c4)c4ccccc34)ccn2)n1` [Example 255, 1-(3-(tert-butyl)-1-(3-fluoro-phenyl)-1H-pyrazol-5-yl)-3-(4-((2-((6-propylpyrazin-2-yl)amino)pyridin-4-yl)methoxy)naphthalen-1-yl) urea], the pIC50 was less than 4.81.

Consider `Cc1ccc(-n2nc(C(C)(C)C)cc2NC(=O)Nc2ccc(OCc3ccnc(Nc4cnc(C(=O)NCCN5CCC[C@H](F)C5)cn4)c3)c3ccccc23)cc1` [Example 101], for which the pIC50 is 6.43.

Regarding `Cc1ccc(-n2nc(C(C)(C)C)cc2NC(=O)Nc2ccc(OCc3ccnc(Nc4cnc(C(=O)NCCn5ccnc5C)cn4)c3)c3ccccc23)cc1` [Example 90], the pIC50 was 7.08.

In the case of `CC(C)(C)c1cc(NC(=O)Nc2ccc(OCc3ccnc(Nc4cnc(CO)cn4)c3)c3ccccc23)n(-c2cccc(Cl)c2)n1` [Example 256, 1-(3-(tert-butyl)-1-(3-chloro-phenyl)-1H-pyrazol-5-yl)-3-(4-((2-((5-(hydroxymethyl)pyrazin-2-yl)amino)pyridin-4-yl)methoxy)naphthalen-1-yl)urea], the pIC50 was less than 4.81.

`Cc1ccc(-n2nc(C(C)(C)C)cc2NC(=O)Nc2ccc(OCc3ccnc(Nc4cnc(C(=O)NCc5nccn5C)cn4)c3)c3ccccc23)cc1` [Example 288, 5-((4-(((4-(3-(3-(tert-butyl)-1-(p-tolyl)-1H-pyrazol-5-yl)ureido)naphthalen-1-yl)oxy)methyl)pyridin-2-yl)amino)-N-((1-methyl-1H-imidazol-2-yl)methyl)pyrazine-2-carboxamide]: the pIC50 is less than 4.87.

With `Cc1ccc(-n2nc(C(C)(C)C)cc2NC(=O)Nc2ccc(OCc3ccnc(Nc4cnc(C(=O)NCCN5CCC(O)CC5)cn4)c3)c3ccccc23)cc1` [Example 84], the pIC50 was 7.17.

`Cc1ccc(-n2nc(C(C)(C)C)cc2NC(=O)Nc2ccc(OCc3ccnc(Nc4cnc(C(=O)NCC5CCN(C)CC5)cn4)c3)c3ccccc23)cc1` [Example 81]: the pIC50 is 7.80.

Turning to `Cc1ccc(-n2nc(C(C)(C)C)cc2NC(=O)Nc2ccc(OCc3ccnc(Nc4cnc(C(=O)N5CCCN(C)CC5)cn4)c3)c3ccccc23)cc1` [Example 274, 1-(3-(tert-butyl)-1-(p-tolyl)-1H-pyrazol-5-yl)-3-(4-((2-((5-(4-methyl-1,4-diazepane-1-carbonyl)pyrazin-2-yl)amino)pyridin-4-yl)methoxy)naphthalen-1-yl)urea], the pIC50 was 7.89.
